Laboratory results published in PubChem BioAssay AID248 (DTP/NCI, 2004).
Values joined by “and” are separate entries in the source; they are usually repeats but may differ in a detail not shown here. Identical values can stand only once. Inconclusive results and toxic doses are left out. Cut-off read from the data, not from the text of the source: active = T/C of 150% or more; inactive = T/C below 125%.

System: L1210 leukemia ip in BDF1 mice, survival T/C
Test: NCI In Vivo Anticancer Drug Screen. Data for tumor model L1210 Leukemia (intraperitoneal) in B6D2F1 (BDF1) mice
Conditions: endpoint: mean survival time, higher = longer survival
How it was run: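 Ratio derived from survival: compound-dosed mice over vehicle-dosed mice, all bearing a transplantable tumor.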

[1] = dose: 100.0 mg/kg/injection, schedule: Q01DX001 (ip), vehicle: saline with Tween-80
[2] = dose: 200.0 mg/kg/injection, schedule: Q01DX001 (ip), vehicle: saline with Tween-80
[3] = dose: 100.0 mg/kg/injection, schedule: Q01DX009 (ip), vehicle: saline with Tween-80
[4] = dose: 200.0 mg/kg/injection, schedule: Q01DX009 (ip), vehicle: saline with Tween-80
[5] = dose: 100.0 mg/kg/injection, schedule: Q04DX003 (ip), vehicle: Klucel (hydroxypropylcellulose) (HPC)
[6] = dose: 200.0 mg/kg/injection, schedule: Q04DX003 (ip), vehicle: Klucel (hydroxypropylcellulose) (HPC)
[7] = dose: 400.0 mg/kg/injection, schedule: Q04DX003 (ip), vehicle: Klucel (hydroxypropylcellulose) (HPC)
[8] = dose: 100.0 mg/kg/injection, schedule: Q01DX001 (ip), vehicle: carboxymethylcellulose (CMC)
[9] = dose: 200.0 mg/kg/injection, schedule: Q01DX001 (ip), vehicle: carboxymethylcellulose (CMC)
[10] = dose: 400.0 mg/kg/injection, schedule: Q01DX001 (ip), vehicle: carboxymethylcellulose (CMC)
[11] = dose: 100.0 mg/kg/injection, schedule: Q01DX001 (ip), vehicle: saline
[12] = dose: 100.0 mg/kg/injection, schedule: Q01DX009 (ip), vehicle: saline
[13] = dose: 100.0 mg/kg/injection, schedule: Q04DX003 (ip), vehicle: saline
[14] = dose: 200.0 mg/kg/injection, schedule: Q01DX001 (ip), vehicle: saline
[15] = dose: 200.0 mg/kg/injection, schedule: Q01DX009 (ip), vehicle: saline
[16] = dose: 200.0 mg/kg/injection, schedule: Q04DX003 (ip), vehicle: saline
[17] = dose: 400.0 mg/kg/injection, schedule: Q01DX009 (ip), vehicle: saline
[18] = dose: 400.0 mg/kg/injection, schedule: Q04DX003 (ip), vehicle: saline
[19] = dose: 200.0 mg/kg/injection, schedule: Q04DX002 (ip), vehicle: Klucel (hydroxypropylcellulose) (HPC)
[20] = dose: 400.0 mg/kg/injection, schedule: Q04DX002 (ip), vehicle: Klucel (hydroxypropylcellulose) (HPC)

Measured: T/C

COc1cc(/C=N/N=C(\N)N[N+](=O)[O-])cc(OC)c1OC
inactive: [1] 114 % of control | [2] 97 % of control | dose: 400.0 mg/kg/injection, schedule: Q01DX001 (ip), vehicle: saline with Tween-80 96 % of control

Cc1ccc(NC(=O)C(Cl)(Cl)Cl)cc1[N+](=O)[O-]
inactive: [3] 94 % of control | [4] 100 % of control | dose: 400.0 mg/kg/injection, schedule: Q01DX009 (ip), vehicle: saline with Tween-80 104 % of control

O=C(c1ccccc1)c1nnc(C(=O)c2ccccc2)nn1
inactive: [5] 102 % of control | [6] 100 % of control | [7] 93 % of control

COC(=O)CCNS(=O)(=O)c1ccc(C)cc1
inactive: dose: 50.0 mg/kg/injection, schedule: Q01DX001 (ip), vehicle: carboxymethylcellulose (CMC) 92 % of control | [8] 94 % of control | [9] 94 % of control | [10] 92 % of control

CC(=O)c1ccc(S(=O)(=O)NCCCc2c(C)nc(NS(=O)(=O)c3ccc(C(C)=O)cc3)[nH]c2=O)cc1
inactive: [8] 98 % of control | [9] 96 % of control | [10] 93 % of control

O=S(=O)(CC(Cl)c1ccccc1)c1ccc(F)cc1 (stereo not given)
inactive: [11] 109 % of control | [12] 91 % of control | [13] 91 % of control | [14] 100 % of control | [15] 110 % of control | [16] 97 % of control | dose: 400.0 mg/kg/injection, schedule: Q01DX001 (ip), vehicle: saline 97 % of control | [17] 99 % of control | [18] 98 % of control

O=C(c1ccccc1)N1CC1(c1ccccc1)C1(c2ccccc2)SCCCS1 (stereo not given)
inactive: dose: 100.0 mg/kg/injection, schedule: Q01DX001 (ip), vehicle: Klucel (hydroxypropylcellulose) (HPC) 95 % of control | dose: 200.0 mg/kg/injection, schedule: Q01DX001 (ip), vehicle: Klucel (hydroxypropylcellulose) (HPC) 98 % of control | dose: 400.0 mg/kg/injection, schedule: Q01DX001 (ip), vehicle: Klucel (hydroxypropylcellulose) (HPC) 92 % of control

O=C(Cl)C(c1ccccc1)c1ccccc1
inactive: [5] 108 % of control | [6] 98 % of control | [7] 96 % of control

C/C(=N/Nc1c(F)c(F)c(-c2c(F)c(F)c(N/N=C(\C)c3ccccc3)c(F)c2F)c(F)c1F)c1ccccc1
inactive: dose: 25.6 mg/kg/injection, schedule: Q04DX002 (ip), vehicle: saline with Tween-80 95 % of control | dose: 64.0 mg/kg/injection, schedule: Q04DX002 (ip), vehicle: saline with Tween-80 92 % of control | dose: 160.0 mg/kg/injection, schedule: Q04DX002 (ip), vehicle: saline with Tween-80 89 % of control | dose: 400.0 mg/kg/injection, schedule: Q04DX002 (ip), vehicle: saline with Tween-80 92 % of control

O=C(CCc1ccccc1)NC(=S)Nc1cccc([N+](=O)[O-])c1
inactive: dose: 12.5 mg/kg/injection, schedule: Q01DX009 (ip), vehicle: saline with Tween-80 96 % of control and 98 % of control | dose: 50.0 mg/kg/injection, schedule: Q04DX003 (ip), vehicle: saline with Tween-80 96 % of control | [1] 93 % of control | dose: 100.0 mg/kg/injection, schedule: Q04DX002 (ip), vehicle: alcohol 104 % of control | dose: 100.0 mg/kg/injection, schedule: Q04DX003 (ip), vehicle: saline with Tween-80 91 % of control | [2] 104 % of control | dose: 200.0 mg/kg/injection, schedule: Q04DX002 (ip), vehicle: alcohol 93 % of control and 100 % of control | dose: 200.0 mg/kg/injection, schedule: Q04DX003 (ip), vehicle: saline with Tween-80 86 % of control | dose: 400.0 mg/kg/injection, schedule: Q04DX002 (ip), vehicle: alcohol 96 % of control

COc1ccc(C(=O)C(C)CN2CCCCC2)cc1 (stereo not given)
inactive: [11] 96 % of control | [14] 107 % of control

Cn1c(=O)c2c(nc(OCC3CCCCC3)n2C)n(C)c1=O
inactive: dose: 50.0 mg/kg/injection, schedule: Q01DX001 (ip), vehicle: other 94 % of control | dose: 100.0 mg/kg/injection, schedule: Q01DX001 (ip), vehicle: other 100 % of control | dose: 200.0 mg/kg/injection, schedule: Q01DX001 (ip), vehicle: other 94 % of control | dose: 400.0 mg/kg/injection, schedule: Q01DX001 (ip), vehicle: other 92 % of control

O=S(NOCc1ccccc1)c1ccc(Cl)cc1 (stereo not given)
inactive: dose: 100.0 mg/kg/injection, schedule: Q01DX009 (ip), vehicle: Klucel (hydroxypropylcellulose) (HPC) 93 % of control | dose: 200.0 mg/kg/injection, schedule: Q01DX009 (ip), vehicle: Klucel (hydroxypropylcellulose) (HPC) 102 % of control | dose: 400.0 mg/kg/injection, schedule: Q01DX009 (ip), vehicle: Klucel (hydroxypropylcellulose) (HPC) 93 % of control

CCCCCC(C)NCCOC(=O)c1ccc(N)cc1 (stereo not given)
inactive: dose: 75.0 mg/kg/injection, schedule: Q01DX001 (ip), vehicle: other 98 % of control

CCN(CC)CCNc1nc(N)c(C#N)c(C#N)c1C#N
inactive: [8] 96 % of control | [9] 94 % of control | [10] 96 % of control

CCCCCCCCCCCCCCCCCCNC(=O)N1CCC(C)CC1
inactive: dose: 100.0 mg/kg/injection, schedule: Q04DX002 (ip), vehicle: Klucel (hydroxypropylcellulose) (HPC) 97 % of control | [19] 100 % of control | [20] 97 % of control

CC(C)(C)Sc1ccncc1
inactive: [3] 98 % of control | [4] 88 % of control

O=C(Cc1ccccc1)Nc1ccc(Nc2ccccc2)cc1
inactive: [19] 100 % of control | [20] 95 % of control

CN(C)/C=C(/C#N)C(=O)N1CCCC1
inactive: [12] 106 % of control | [13] 101 % of control | [15] 102 % of control | [16] 101 % of control | [17] 112 % of control | [18] 117 % of control

COC(=O)CCNC(=O)C1CSC(C)(C)N1C=O (stereo not given)
inactive: [13] 97 % of control | [16] 97 % of control | [18] 90 % of control

CC(C)=CCC/C(C)=C\CC1=C(O)c2ccccc2C(=O)C1=O
inactive: dose: 100.0 mg/kg/injection, schedule: Q01DX001 (ip), vehicle: water 96 % of control | dose: 100.0 mg/kg/injection, schedule: Q04DX003 (ip), vehicle: acetone 102 % of control | dose: 200.0 mg/kg/injection, schedule: Q01DX001 (ip), vehicle: water 100 % of control | dose: 200.0 mg/kg/injection, schedule: Q04DX003 (ip), vehicle: acetone 94 % of control

CCCCCCCCCCCC[Si](c1ccccc1)(c1ccccc1)c1ccccc1
inactive: dose: 100.0 mg/kg/injection, schedule: Q04DX003 (ip), vehicle: other 94 % of control | dose: 200.0 mg/kg/injection, schedule: Q04DX003 (ip), vehicle: other 96 % of control | dose: 400.0 mg/kg/injection, schedule: Q04DX003 (ip), vehicle: other 90 % of control
